In ChEMBL document CHEMBL3886475, “Substituted hetero-bicyclic compounds, compositions and medicinal applications thereof” (2016):

Biological target: Tyrosine-protein kinase BTK (Homo sapiens, UniProt Q06187)
Experiment: Recombinant Human BTK Inhibition Assay: The inhibition assays were performed using the generic tyrosine kinase assay kit from C is Bio (HTRF KinEASE-TK #62TK0PEB). The assay is based on the principle of fluorescence resonance energy transfer (FRET) between the Europium Cryptate labeled anti-phosphotyrosine antibody and streptavidin labeled fluorophore, XL-665. In an uninhibited kinase reaction the biotinylated peptide substrate (Tk-Biotin) gets phosphorylated at an intermediate tyrosine site which is captured by anti-phosphotyrosine antibody which eventually acts as a FRET donor. The streptavidin labeled XL-665 binds strongly to the Tk-Biotin substrate and act as a FRET acceptor. The resultant FRET signal is measured at 665 nm. A ratio of this specific fluorescence (665 nm) to the background fluorescence (620 nm), conferred by the free antibody, is directly proportional to the kinase activity. Inhibition of the kinase activity by a pharmacological intervention such as a Btk inhibitor of the present disclosure will result into decreased FRET signal.

Tyrosine-protein kinase BTK, sequence (Q06187 whole entry): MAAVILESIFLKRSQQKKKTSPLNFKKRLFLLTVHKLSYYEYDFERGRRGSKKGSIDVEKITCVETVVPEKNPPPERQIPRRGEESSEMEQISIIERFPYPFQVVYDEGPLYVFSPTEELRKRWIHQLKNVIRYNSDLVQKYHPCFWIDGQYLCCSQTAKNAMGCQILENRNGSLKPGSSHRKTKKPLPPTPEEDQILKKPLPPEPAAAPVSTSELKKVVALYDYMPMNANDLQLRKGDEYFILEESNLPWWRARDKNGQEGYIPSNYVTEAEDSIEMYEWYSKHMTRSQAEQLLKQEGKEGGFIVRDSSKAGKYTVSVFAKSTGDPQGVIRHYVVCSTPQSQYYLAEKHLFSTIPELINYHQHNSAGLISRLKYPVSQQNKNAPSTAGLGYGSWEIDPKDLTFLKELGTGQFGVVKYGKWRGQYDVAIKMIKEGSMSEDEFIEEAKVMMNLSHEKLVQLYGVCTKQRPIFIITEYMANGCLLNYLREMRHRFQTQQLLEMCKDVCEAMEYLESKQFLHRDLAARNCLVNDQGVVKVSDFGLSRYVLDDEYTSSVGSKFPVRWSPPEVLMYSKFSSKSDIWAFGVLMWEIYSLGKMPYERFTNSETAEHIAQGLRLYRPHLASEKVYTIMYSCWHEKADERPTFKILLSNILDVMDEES

CCN1CC(n2cc(-c3cc4c(-c5cccc(N6CCOc7cc(C8CC8)ccc7C6=O)c5CO)ccnc4[nH]3)cn2)C1
IC50: 7 nM
